Test results published in patent publication US20120309796A1, “BENZOCYCLOHEPTENE ACETIC ACIDS” (priority 2011, published 2012).
pIC50: −log10 of the molar value.

Target: T1, thromboxane A2 receptor (TP) (Homo sapiens, UniProt P21731)
T1 construct: using human platelets as the source of the receptor; from tissue; host or cells: human platelets (whole platelets, 5x10^7 per well)
T1 sequence (P21731 1-343): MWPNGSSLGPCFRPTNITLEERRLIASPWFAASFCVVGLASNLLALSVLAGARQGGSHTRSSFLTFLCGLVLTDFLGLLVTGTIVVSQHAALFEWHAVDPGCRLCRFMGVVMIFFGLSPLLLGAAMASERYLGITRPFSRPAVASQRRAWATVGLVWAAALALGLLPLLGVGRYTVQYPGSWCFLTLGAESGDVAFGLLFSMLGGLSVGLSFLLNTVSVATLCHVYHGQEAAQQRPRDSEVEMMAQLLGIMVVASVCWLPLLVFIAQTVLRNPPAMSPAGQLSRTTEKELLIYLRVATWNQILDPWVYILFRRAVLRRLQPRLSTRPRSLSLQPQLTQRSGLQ
Test: Human Thromboxane A2 Receptor Binding Assay
Details: human platelets; 10 nM [3H]SQ29548; 1 hour, room temperature
Description: The thromboxane A2 receptor (TP) plays a key role in hemostasis as its abnormality leads to bleeding disorders. To avoid the potential liability of bleeding disorders, the binding activity of certain compounds of the present invention against TP was monitored by a receptor binding assay using human platelets as the source of the receptor and [^3H]SQ29548 (generically named (5Z)-[5,6-^3H]-7-[(1S,2R,3R,4R)-3-[[2-[(phenylamino)carbonyl]hydrazinyl]methyl]-7-oxabicyclo[2.2.1]hept-2-yl]-5-heptenoic acid, from PerkinElmer Inc.) as the competing radioactive ligand.
The TP binding reactions (0.2 mL) were performed in 96-well plates at room temperature in PBS containing 5×10^7 platelets, 10 mM MgCl2, 0.06% BSA, 10 nM [^3H]SQ29548, and the test compound at various concentrations. […] The radioactivities bound to the platelets were determined using a microplate scintillation counter (TopCount® NXT, from PerkinElmer Inc.) after adding 50 μL of Microscint™ 20 scintillation fluid (from PerkinElmer Inc.) to each well of the filter plates. The radioactivity from non-specific binding was determined by replacing the compound with 10 μM of ramatroban (BAY-u3405, from Cayman Chemical Company) in the reaction mixtures. The radioactivity bound to the platelets in the absence of compound (total binding) was determined by replacing the compound with 0.25% of DMSO in the reaction mixture. […]

pIC50 | SMILES
5.44 | O=C(O)COc1cccc2c1CCCCC2NS(=O)(=O)c1cc(C(F)(F)F)cc(C(F)(F)F)c1 (single isomer, unassigned) [Example 46, [5-(3,5-Bis-trifluoromethyl-benzenesulfonylamino)-6,7,8,9-tetrahydro-5H-benzocyclohepten-1-yloxy]-acetic acid]
6.19 | O=C(O)COc1cccc2c1CCCCC2NS(=O)(=O)c1cc(C(F)(F)F)cc(C(F)(F)F)c1 (centres unmarked) [Example 1, [5-(3,5-Bis-trifluoromethyl-benzenesulfonylamino)-6,7,8,9-tetrahydro-5H-benzocyclohepten-1-yloxy]-acetic acid]
